# According to patent publication US20240116947A1, “PYRIDO OXAZINE DERIVATIVES AS ALK5 INHIBITORS” (CHIESI FARMACEUTICI S.P.A., priority 2020, published 2024):
# Where two headings read alike, the source gives them in different places.
# Biological target: human ALK5 (Homo sapiens (Human), UniProt P36897)
# Experiment: ADP-GLO Kinases assay, inhibition of ALK5 enzymatic activity
# Format: biochemical
# Procedure: The enzymatic activity of compounds of the present invention was monitored measuring the formation of ADP using the ADP-GLO Kinases assay. Following the incubation of the purified enzyme, a substrate and ATP, the produced ADP was converted into ATP, which in turn was converted into light by Ultra-Glo Luciferase. The luminescent signal positively correlated with ADP amount and kinase activity. Briefly, the kinase reaction was performed by incubating 2.6 nM of the purified, commercially available human ALK5 (recombinant TGF β1 N-term GST-tagged, 80-end), a final concentration of TGFβ1 peptide 94.5 μM (Promega, T36-58) and ultra-pure ATP (Promega V915B). […] All reactions/incubations were performed at 25° C. Compound and ALK5 kinase were mixed and incubated for 15 mins. Reactions were initiated by addition of ATP at a final concentration in the assay of 0.83 μM. After an incubation of 150 min, the reaction was stopped, and ADP production detected with ADP-Glo kit according to manufacturer's indications. The assay was performed in 384-well format and was validated using a selection of reference compounds that was tested in 11 point concentration-response curve.
# human ALK5, sequence (P36897 80-503 limits assumed): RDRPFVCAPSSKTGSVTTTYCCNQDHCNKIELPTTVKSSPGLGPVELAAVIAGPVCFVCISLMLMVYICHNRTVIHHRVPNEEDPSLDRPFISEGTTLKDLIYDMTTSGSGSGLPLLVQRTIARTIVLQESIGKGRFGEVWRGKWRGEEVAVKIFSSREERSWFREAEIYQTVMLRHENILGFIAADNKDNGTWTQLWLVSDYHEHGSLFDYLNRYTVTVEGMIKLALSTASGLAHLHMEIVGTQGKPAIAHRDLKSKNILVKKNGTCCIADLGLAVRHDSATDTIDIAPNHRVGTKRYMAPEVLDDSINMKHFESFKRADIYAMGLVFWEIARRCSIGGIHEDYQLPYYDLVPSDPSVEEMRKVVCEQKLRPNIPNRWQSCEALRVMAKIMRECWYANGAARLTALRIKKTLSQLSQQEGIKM
smiles,measurement,setting,value
CN1CCN(CCC(=O)Nc2cc(N3CCOc4c3cc(-c3cc(Cl)ccc3F)nc4C(F)(F)F)ccn2)CC1 [Example 56],IC50,"Table 4, potency bins, purified recombinant human ALK5, ADP-Glo, 25° C., read-out: ALK5 IC50",0.005 to 0.01 µM
"Fc1ccc(Cl)cc1-c1cc2c(cn1)OCCN2c1ccn[nH]1 [Example C1, 5-[7-(5-chloro-2-fluorophenyl)-1H,2H,3H-pyrido[3,4-b][1,4]oxazin-1-yl]-1H-pyrazole, reference compound]",IC50,"Table 5, comparative examples, same in vitro assay, read-out: ALK5 IC50",9.21 µM
same,IC50,"statements in running text, read-out: potency (IC50) with respect to inhibitory activity on ALK5",> 9 µM
